Measured values published in ChEMBL document CHEMBL5104172, “Design, synthesis, and antibacterial activity of derivatives of Tryptophanyl-tRNA synthetase inhibitor indolmycin” (Eur J Med Chem, 2022).
Values after ≈ are worked out from the molar mass of the structure shown.

Assays:
Format in all cases: functional
Escherichia coli = test: Antibacterial activity against Escherichia coli ATCC 25922 measured by liquid dilution method
Staphylococcus aureus [1] = test: Antibacterial activity against Staphylococcus aureus ATCC 29213 measured by liquid dilution method
Staphylococcus aureus [2] = test: Antibacterial activity against methicillin-resistant Staphylococcus aureus NRS384 measured by liquid dilution method

With `CNC1=NC(=O)C(C(C)c2c[nH]c3cccc(F)c23)S1` (racemic) the MIC (Escherichia coli) was over 128 µg/mL, the MIC (Staphylococcus aureus [1]) was 8 µg/mL (≈ 27.5 µM) and the MIC (Staphylococcus aureus [2]) was over 128 µg/mL.
Molecule `CNC1=NC(=O)C(C(C)c2c[nH]c3c(F)cccc23)O1` (racemic) has an MIC (Escherichia coli) of 16 µg/mL (≈ 58.1 µM), an MIC (Staphylococcus aureus [1]) of 8 µg/mL (≈ 29.1 µM) and an MIC (Staphylococcus aureus [2]) of 8 µg/mL (≈ 29.1 µM).
With `CNC1=NC(=O)C(C(C)c2c[nH]c3cc(Br)ccc23)O1` (racemic) the MIC (Escherichia coli) was 4 µg/mL (≈ 11.9 µM), the MIC (Staphylococcus aureus [1]) was over 128 µg/mL and the MIC (Staphylococcus aureus [2]) was 16 µg/mL (≈ 47.6 µM).
Work on `CNC1=NC(=O)C(C(C)c2c[nH]c3c(Br)cccc23)O1` (racemic) yielded an MIC (Escherichia coli) of over 128 µg/mL, an MIC (Staphylococcus aureus [1]) of over 128 µg/mL and an MIC (Staphylococcus aureus [2]) of over 128 µg/mL.
`CNC1=NC(=O)C(C(C)c2c[nH]c3cccc(Cl)c23)S1` (racemic) was tested, and the MIC (Escherichia coli) was over 128 µg/mL, the MIC (Staphylococcus aureus [1]) was 8 µg/mL (≈ 26 µM) and the MIC (Staphylococcus aureus [2]) was over 128 µg/mL.
`CNC1=NC(=O)C(C(C)c2c[nH]c3ccc(C)cc23)O1` (racemic) showed an MIC (Escherichia coli) of over 128 µg/mL, an MIC (Staphylococcus aureus [1]) of over 128 µg/mL and an MIC (Staphylococcus aureus [2]) of over 128 µg/mL.
For `CC(c1c[nH]c2cccc(F)c12)C1OC(N)=NC1=O` (racemic), the MIC (Escherichia coli) was over 128 µg/mL, the MIC (Staphylococcus aureus [1]) was 16 µg/mL (≈ 61.2 µM) and the MIC (Staphylococcus aureus [2]) was over 128 µg/mL.
Work on `CNC1=NC(=O)C(C(C)c2c[nH]c3ccc(Br)cc23)O1` (racemic) yielded an MIC (Escherichia coli) of 4 µg/mL (≈ 11.9 µM), an MIC (Staphylococcus aureus [1]) of over 128 µg/mL and an MIC (Staphylococcus aureus [2]) of 64 µg/mL (≈ 190 µM).
`CC(c1c[nH]c2cccc(F)c12)C1SC(N)=NC1=O` (racemic) showed an MIC (Escherichia coli) of over 128 µg/mL, an MIC (Staphylococcus aureus [1]) of 16 µg/mL (≈ 57.7 µM) and an MIC (Staphylococcus aureus [2]) of over 128 µg/mL.
